Measured values taken from US11596639B2, “Substituted indole Mcl-1 inhibitors” (Vanderbilt University, priority 2016, dated 2023).
pKi: −log10 of the molar value.

Experiments:
[1] = system: H929 human cancer cell lines; test: Cellular viability / proliferation (Cell TiterGlo, 72 h); assay type: cell-based; conditions: Homo sapiens, NCI-H929, 72 h, read-out: GI50 on cellular proliferation of H929 human cancer cell lines, H929 cells, 72 h, Cell TiterGlo, 10% FBS
How it was run: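 Top dose 50 μM, serially diluted 2-fold, applied one day after seeding (1,000 cells/well, 10% FBS), DMSO below 1%.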

Mcl-1 = Mcl-1 (Homo sapiens (Human), UniProt Q07820); test: TR-FRET binding assay, FITC-Bak peptide and MBP-tagged Mcl-1; conditions: read-out: Ki for Inhibition of Mcl-1 by TR-FRET assay
Experimental: Compounds are diluted in DMSO in a 16-point, semilog serial dilution scheme. […] The plate was mixed and incubated for 3 hours at room temperature. […] TR-FRET signal is plotted and IC50 and Ki values are calculated in the same manner as the fluorescence polarization anisotropy based competition assays.

Chain of Mcl-1 (Q07820 172-327): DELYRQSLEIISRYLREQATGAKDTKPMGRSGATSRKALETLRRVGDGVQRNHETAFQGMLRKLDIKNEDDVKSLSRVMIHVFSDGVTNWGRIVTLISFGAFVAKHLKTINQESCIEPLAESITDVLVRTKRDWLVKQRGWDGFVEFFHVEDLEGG

| Structure (SMILES) | GI50 [1] [µM] | pKi (Mcl-1) |
| --- | --- | --- |
| COc1ccc(N2C[C@@H](C)n3c(c(CCCOc4cc(C)c(Cl)c(C)c4)c4ccc(Cl)c(-c5c(C)ncnc5C)c43)C2=O)c2c1cc(C(=O)O)n2Cc1cc(C)ccn1 [Example 520, (R)-7-(7-chloro-10-(3-(4-chloro-3,5-dimethylphenoxy)propyl)-6-(4,6-dimethylpyrimidin-5-yl)-4-methyl-1-oxo-3,4-dihydropyrazino[1,2-a]indol-2(1H)-yl)-4-methoxy-1-((4-methylpyridin-2-yl)methyl)-1H-indole-2-carboxylic acid] | < 0.2 | > 9.70 |
| Cc1cc(N2C[C@@H](C)n3c(c(CCCOc4cc(C)c(Cl)c(C)c4)c4ccc(Cl)c(-c5c(C)nn(C)c5C)c43)C2=O)c2c(c1)cc1n2CCOC1=O [Example 685, (R)-6-(7-chloro-10-(3-(4-chloro-3,5-dimethylphenoxy)propyl)-4-methyl-1-oxo-6-(1,3,5-trimethyl-1H-pyrazol-4-yl)-3,4-dihydropyrazino[1,2-a]indol-2(1H)-yl)-8-methyl-3,4-dihydro-1H-[1,4]oxazino[4,3-a]indol-1-one] | 1.4 | 8.49 |
| COCCn1c(C(=O)O)cc2cc(C)cc(N3C[C@@H](C)n4c(c(CCCOc5cc(C)c(Cl)c(C)c5)c5ccc(Cl)c(-c6c(C)nc(CN7CCOCC7)nc6C)c54)C3=O)c21 [Example 717, (R)-7-(7-chloro-10-(3-(4-chloro-3,5-dimethylphenoxy)propyl)-6-(4,6-dimethyl-2-(morpholinomethyl)pyrimidin-5-yl)-4-methyl-1-oxo-3,4-dihydropyrazino[1,2-a]indol-2(1H)-yl)-1-(2-methoxyethyl)-5-methyl-1H-indole-2-carboxylic acid] | < 0.2 | > 9.70 |
| Cc1cc(OCCCc2c3n(c4c(-c5c(C)nn(C)c5C)c(Cl)ccc24)[C@H](C)CN(c2cn(CCN4CCN(C)C(=O)C4)c4ccc(-c5ncn(C)n5)cc24)C3=O)cc(C)c1Cl [Example 603, (R)-7-Chloro-10-(3-(4-chloro-3,5-dimethylphenoxy)propyl)-4-methyl-2-(5-(1-methyl-1H-1,2,4-triazol-3-yl)-1-(2-(4-methyl-3-oxopiperazin-1-yl)ethyl)-1H-indol-3-yl)-6-(1,3,5-trimethyl-1H-pyrazol-4-yl)-3,4-dihydropyrazino[1,2-a]indol-1(2H)-one] | < 0.2 | 9.05 |
| COCCOCc1cccn2nc(-c3ccc4c(c3)c(N3C[C@@H](C)n5c(c(CCCOc6cc(C)c(Cl)c(C)c6)c6ccc(Cl)c(-c7c(C)nn(C)c7C)c65)C3=O)cn4C)nc12 [Example 699, (R)-7-Chloro-10-(3-(4-chloro-3,5-dimethylphenoxy)propyl)-2-(5-(8-((2-methoxyethoxy)methyl)-[1,2,4]triazolo[1,5-a]pyridin-2-yl)-1-methyl-1H-indol-3-yl)-4-methyl-6-(1,3,5-trimethyl-1H-pyrazol-4-yl)-3,4-dihydropyrazino[1,2-a]indol-1(2H)-one] | 0.35 | 8.92 |
| Cc1cc(N2C[C@@H](C)n3c(c(CCCOc4cc(C)c(Cl)c(C)c4)c4ccc(Cl)c(-c5c(C)nn(C)c5C)c43)C2=O)c2c(c1)cc(C(=O)O)n2CCOC(C)C [Example 578, (R)-7-(7-chloro-10-(3-(4-chloro-3,5-dimethylphenoxy)propyl)-4-methyl-1-oxo-6-(1,3,5-trimethyl-1H-pyrazol-4-yl)-3,4-dihydropyrazino[1,2-a]indol-2(1H)-yl)-1-(2-isopropoxyethyl)-5-methyl-1H-indole-2-carboxylic acid] | 0.39 | > 9.70 |
| Cc1cc(N2C[C@@H](C)n3c(c(CCCOc4cc(C)c(Cl)c(C)c4)c4ccc(Cl)c(-c5c(C)nn(C)c5C)c43)C2=O)c2c(c1)cc(C(=O)O)n2Cc1cc(N2CCOCC2)ccn1 [Example 500, (R)-7-(7-chloro-10-(3-(4-chloro-3,5-dimethylphenoxy)propyl)-4-methyl-1-oxo-6-(1,3,5-trimethyl-1H-pyrazol-4-yl)-3,4-dihydropyrazino[1,2-a]indol-2(1H)-yl)-5-methyl-1-((4-morpholinopyridin-2-yl)methyl)-1H-indole-2-carboxylic acid] | 0.33 | > 9.70 |
| COCCn1cc(N2C[C@@H](C)n3c(c(CCCOc4cc(C)c(Cl)c(C)c4)c4ccc(Cl)c(-c5c(C)nn(C)c5C)c43)C2=O)c2cc(-c3ncn(CCN4CCN(C)CC4)n3)ccc21 [Example 602, (R)-7-Chloro-10-(3-(4-chloro-3,5-dimethylphenoxy)propyl)-2-(1-(2-methoxyethyl)-5-(1-(2-(4-methylpiperazin-1-yl)ethyl)-1H-1,2,4-triazol-3-yl)-1H-indol-3-yl)-4-methyl-6-(1,3,5-trimethyl-1H-pyrazol-4-yl)-3,4-dihydropyrazino[1,2-a]indol-1(2H)-one] | 0.43 | 8.23 |
| Cc1cc(OCCCc2c3n(c4c(-c5c(C)nn(C)c5C)c(Cl)ccc24)[C@H](C)CN(c2cn(C)c4ccc(-c5nc6ccccn6n5)cc24)C3=O)cc(C)c1Cl [Example 648, (R)-2-(5-([1,2,4]Triazolo[1,5-a]pyridin-2-yl)-1-methyl-1H-indol-3-yl)-7-chloro-10-(3-(4-chloro-3,5-dimethylphenoxy)propyl)-4-methyl-6-(1,3,5-trimethyl-1H-pyrazol-4-yl)-3,4-dihydropyrazino[1,2-a]indol-1(2H)-one] | 0.31 | 9.64 |
| Cc1cc(OCCCc2c3n(c4c(-c5c(C)nn(C)c5C)c(Cl)ccc24)[C@H](C)CN(c2cn(C)c4ccc(-c5nc6c(C)cccn6n5)cc24)C3=O)cc(C)c1Cl [Example 698, (R)-7-Chloro-10-(3-(4-chloro-3,5-dimethylphenoxy)propyl)-4-methyl-2-(1-methyl-5-(8-methyl-[1,2,4]triazolo[1,5-a]pyridin-2-yl)-1H-indol-3-yl)-6-(1,3,5-trimethyl-1H-pyrazol-4-yl)-3,4-dihydropyrazino[1,2-a]indol-1(2H)-one] | 0.62 | 8.74 |
| Cc1cc(OCCCc2c3n(c4c(-c5c(C)nc(CN6CCN(C)C(=O)C6)nc5C)c(Cl)ccc24)[C@H](C)CN(c2cn(C)c4ccc(-c5ncn(C)n5)cc24)C3=O)cc(C)c1Cl [Example 663, (R)-7-chloro-10-(3-(4-chloro-3,5-dimethylphenoxy)propyl)-6-(4,6-dimethyl-2-((4-methyl-3-oxopiperazin-1-yl)methyl)pyrimidin-5-yl)-4-methyl-2-(1-methyl-5-(1-methyl-1H-1,2,4-triazol-3-yl)-1H-indol-3-yl)-3,4-dihydropyrazino[1,2-a]indol-1(2H)-one] | < 0.2 | 9.28 |
| Cc1cc(OCCCc2c3n(c4c(-c5c(C)nn(C)c5C)c(Cl)ccc24)[C@H](C)CN(c2cc(CN4CCN(C)CC4)cc4c(C(=O)O)cn(C)c24)C3=O)cc(C)c1Cl [Example 490, (R)-7-(7-Chloro-10-(3-(4-chloro-3,5-dimethylphenoxy)propyl)-4-methyl-1-oxo-6-(1,3,5-trimethyl-1H-pyrazol-4-yl)-3,4-dihydropyrazino[1,2-a]indol-2(1H)-yl)-1-methyl-5-((4-methylpiperazin-1-yl)methyl)-1H-indole-3-carboxylic acid] | 0.81 | 9.54 |
